Data taken from a melting point compilation (Tetko et al.; mined from patent text by program, amines drawn as free bases though some values may be those of a salt).

melting point [°C]	SMILES
136 to 137	COc1cccc(C=NNC(=O)OC(C)(C)C)c1
98	CC[C@@H](C)[C@H](CC(C(=O)O)C(=O)O)C(=O)OC
232 to 236	CC(C)c1nc2ccccn2c(=O)c1-c1ccc(NC2CCN(C(=O)OC(C)(C)C)C2)cc1 (stereo not drawn)
75 to 76	CC(=O)OCN1C(=O)CON(C(C)=O)C1c1ccccc1 (stereo not drawn)
220 to 223	CC(C)Nc1nc(-n2cc(C(=O)O)c(=O)c3cc(F)c(N4CC(N)C4)c(Cl)c32)c(F)cc1F
149 to 152	CO/N=C(/CNC(=O)c1cnc(O[C@@H](C)C(F)(F)F)c(-c2ccc(Cl)cc2)n1)C1CC1
64 to 66	CCOC(=O)Cc1nc(-c2ccc(OC)cc2)oc1-c1ccco1
204 to 205	O=CCC[C@@H]1[C@@H](OCc2ccc(-c3ccccc3)cc2)CO[C@@H]1c1cccnc1
156 to 158	O=[N+]([O-])C=C1NCCN1Cc1ccno1
73 to 77	C=CCOC(=O)/C=C/c1c[nH]c2ccc(OCc3ccccc3)cc12
114 to 115	CS(=O)(=O)OC[C@H]1CCn2c(cc3ccccc32)C1
160 to 165	COc1ccccc1[C@H](c1cccc2ccccc12)[C@@](C)(C#N)C(=O)N1CCC(C2CCCC(C(F)(F)F)C2)CC1 (stereo partly drawn)
198	O=C(Nc1ccc(Br)cc1)Oc1ccc2c(c1)CCCN2
154 to 155	Nc1ccc(C2(C(=O)O)CC2C(=O)O)cc1 (stereo not drawn)
72	N#CSc1ccc([N+](=O)[O-])cc1C(Cl)(Cl)Cl
225 to 226	CN(c1cccc2cc(-c3ncc(CN4CCS(=O)(=O)CC4)s3)[nH]c12)S(=O)(=O)c1cccs1
159 to 161	CC(C)OC(=O)N1CC(=O)Nc2ccc(Br)cc21
177 to 179	Nc1c(N(CC(=O)O)Cc2ccccc2)c(=O)c1=O
187 to 188	C=CCNC(=O)NS(=O)(=O)c1ccccc1OC(Cl)=CCl

melting point [°C]	SMILES
32 to 34	CN(C)Cc1cc(OCCCO)cs1
106 to 110	CCC(CC1(c2ccc(Cl)c(Cl)c2)CCC1)=NO
207	Cc1cccc(C2(c3cccc(C)c3)CCC(=O)[C@H]3CN(C(=O)Cc4ccccc4)C[C@H]32)c1 (racemic)
159 to 161	COC(=O)C(c1ccccc1)C(c1ccc(OC)cc1)n1cncn1 (stereo not drawn)
203	CC1=C(C#N)C(=C(C#N)C#N)OC1(C)C
123 to 125	COC(O)c1ccc2c(c1)C(C(Cl)(Cl)Cl)OC(C(Cl)(Cl)Cl)O2 (stereo not drawn)
80	COc1ccc2[nH]c(C(=O)Nc3ccc(CCCN(C)Cc4ccc(OC)c(OC)c4)cc3)cc2c1
67.5 to 68.5	COC(=O)CCCCCCCCCCCCCCCCCOS(=O)(=O)c1ccc(C)cc1
45 to 46	O=C(O)C(F)(CCC(F)(F)C(F)(F)C(F)(F)C(F)(F)F)C(F)(F)F (stereo not drawn)
147 to 149	CCc1c(-c2ccc(O)cc2)c2ccc3c(N)ccc1n32
78 to 80	COc1nc(N)nc(OCC(F)(F)F)n1
207 to 210	CN1c2ccc(S(=O)(=O)N3CCOCC3)cc2S(=O)(=O)NC1C1CCCCC1 (stereo not drawn)
154 to 155	Clc1ccc(Oc2cncc3sc(C4=NCCN4)cc23)cc1
> 250	COc1cc(NC(=O)C(C#N)=CNc2ccsc2)c(Cl)cc1Cl
158 to 160	CN(C(=O)Nc1ccccc1)c1ccc(Cl)cc1C(=O)c1ccccc1
187	O=C(O)Cc1c(C(=O)c2ccc(OC(F)(F)F)cc2)[nH]c2ccc(Cl)cc12
91 to 92	O=CC12CC(c3ccccc31)c1ccc(Cl)cc12 (stereo not drawn)
39 to 41	CC1OC(=S)c2c(O)cccc21 (stereo not drawn)
105 to 108	COc1cccc(C2(O)CCC(=O)CC2)c1

melting point [°C]	SMILES
177 to 178	CC(=O)Nc1c(C#N)cnn1-c1c(Cl)cc(C(F)(F)F)c(Cl)c1Cl
145 to 147	CNc1c(NCCNCc2ccc(CN3CCCCC3)o2)c(=O)c1=O
107	O=C1C(CCC(O)c2ccc(F)cc2)C(c2ccc(-c3cccc(O)c3)cc2)N1c1ccc(F)cc1 (stereo not drawn)
165 to 167	O=C(CCCCC(=O)c1ccc(F)cc1)c1ccc(F)cc1
171 to 172	C=Cc1c(C)c(NC(=O)CC(C)(C)C)c(C)c2c1OCC2c1ccc(C(C)C)cc1 (stereo not drawn)
270	O=c1nc(C2CCCCC2)c2cc(Cl)ccc2[nH]1
166 to 167	O=C(Nc1cccc2c1C(=O)c1c-2n[nH]c1-c1ccc(C(=O)N2CCC[C@@H]2CN2CCCC2)s1)NN1CCOCC1
190	COc1cccc2c1C(=O)C(Br)=C(Br)C2=O
92 to 93	CCN(CC)CC(O)Cn1ccnc1[N+](=O)[O-] (stereo not drawn)
180 to 182	CSc1nc(=O)cc(N)n1-c1ccc(Cl)cc1
> 250	Nc1nc2c(ncn2C2CCC(CO)O2)c(=O)[nH]1 (stereo not drawn)
104 to 106	COc1cccc(C2(c3cccc(OC)c3)CC2C=CC(=O)NC(C)CCCc2cccnc2)c1 (single isomer, unassigned)
105 to 107	CC(O)(C(N)=O)c1ccc(OS(=O)(=O)C(F)(F)F)cc1 (stereo not drawn)
186 to 189	O=c1ccoc2cc(OCCCNCC3COc4ccc(O)cc4O3)ccc12 (stereo not drawn)
96 to 100	CC(C)CC[C@H](O)[C@H](CC1CCCCC1)NC(=O)[C@H](Cc1c[nH]cn1)NC(=O)OC(C)(C)C
208	CCC(=O)n1c(=O)[nH]c(=O)n1C(=O)CC
118 to 120	CN1NC(=O)CSC1=Nc1ccc(Cl)c(Cl)c1
159 to 160	CN(Cc1cc(C(F)(F)F)cc(C(F)(F)F)c1)C(=O)c1c(-c2ccccc2C(F)(F)F)c2ccccc2c(=O)n1C

Continued, compound first:

SMILES	melting point [°C]
O=S(=O)(Cl)c1cccc2c(I)cccc12	113 to 114
COC(=O)C1c2ccc(OC)cc2SC1c1ccc(OC)cc1 (stereo not drawn)	98.3 to 99.8
O=COCCCN1C(=O)c2ccccc2C1=O	68 to 70
CN(C1c2cc(O)ccc2OC(C)(C)C1O)S(C)(=O)=O (stereo not drawn)	204 to 206
CC1(Br)CS(=O)C2C(NC(=O)Cc3ccccc3)C(=O)N2C1C(=O)OCC(Cl)(Cl)Cl (stereo not drawn)	159 to 161
Cc1nn(-c2ccccn2)c2[nH]c3ccc(N)cc3c(=O)c12	260 to 262
CC(=O)OCCN1CC(c2ccccc2)NC1=O (stereo not drawn)	88 to 90
CNC(=O)Oc1cc(C)c(NC(=O)COC)c(C)c1	180 to 182
CSc1ccc(C(=O)Nc2cc(-c3c(-c4ccc(F)c(C)c4)nc4cccnn34)ccn2)cc1	191 to 192
CC(C)c1nc(C(N)=O)c2n1-c1ccc(Cl)cc1C(c1ccccc1Cl)=NC2	328 to 330
CC(C)(C)NC(=O)c1cnc(Cl)cc1-c1ccc(F)cc1	168 to 173
COc1cccc(-c2nn(Cc3oc4ccccc4c(=O)c3-c3cccc(F)c3)c3ncnc(N)c23)c1	175 to 178
C1=NC=C2CCNC=C12	182 to 190
COC(=O)C1CCCn2c(=O)n(CC(=O)OCc3ccccc3)c(=O)n21 (stereo not drawn)	103 to 106
COc1cccc2sc(C(N)=O)c(N)c12	151 to 153
Cc1cc(OC(F)F)nc(NC(=O)NS(=O)(=O)c2cccnc2Cl)n1	161 to 162
O=C(CN1CCN(c2ccc(CO)c(Cl)c2)CC1)c1cc2ccccc2o1	169 to 172
CCOc1ccccc1-c1nc2c(C)cccc2c(=O)[nH]1	177 to 180
CC1NC(=O)NN=C1c1ccc2sc(=O)n(CC(=O)N3CCN(CCO)CC3)c2c1 (stereo not drawn)	248 to 250
CCCCC(Cc1ccc(OCCNC(=O)c2ccc(-c3cc(C)c(OCOC)c(C)c3)cc2)cc1)C(=O)OCC (stereo not drawn)	70 to 71
c1ncn(Cc2ccc3c(c2)Cc2c(-c4ccsc4)n[nH]c2-3)n1	252 to 257
CCN(c1ccccc1)c1ccc(C(=O)c2ccccc2)cc1N	82 to 82.5
CC(C)(C)NCC(O)COc1cccc2[nH]c(=S)[nH]c12 (stereo not drawn)	214 to 216
O=C(NC1CCCCC1)NC1CCN(CCc2c[nH]c3ccccc23)CC1	204

SMILES	melting point [°C]
C#Cc1ccc(OC2CCCCO2)cc1 (stereo not drawn)	65
O=C(NNC(=O)c1cccc([N+](=O)[O-])c1)c1ccc([N+](=O)[O-])cc1	250 to 251
N#Cc1c(N2CCN(C(=O)c3ccco3)CC2)c2cc(F)cnc2[nH]c1=O	312
COC(=O)c1ccc2c(c1)NCc1ccccc1O2	125 to 126
CCn1ncc2c(Cl)c3cc(Br)ccc3nc21	117 to 118
O=[N+]([O-])c1cc2c(Nc3ccc(F)c(Cl)c3)ncnc2cc1O[C@@H]1CCOC1	244
Cn1ncc2c(c1=O)SCCNC2C(=O)c1ccc([N+](=O)[O-])cc1 (stereo not drawn)	230 to 232
CCOC(=O)C1C(C=C(Br)Br)C1(C)C (stereo not drawn)	110
Cc1cc(C)c(-c2cc(O)c(SCc3ccccc3)c(=O)o2)c(C)c1	134 to 136
CS(=O)CCNC(=O)c1cc2cc(S(N)(=O)=O)sc2s1 (stereo not drawn)	242 to 243
CC(=O)SCc1ccccc1CCC(=O)Nc1cccc(C(=O)OCCBr)c1	85 to 88
CCCCCCCCCCCCCCCCCCNC(=O)Oc1ccc([N+](=O)[O-])cc1OC(=O)NCCCCCCCCCCCCCCCCCC	117 to 121
CCC(OCc1ccc(-c2ccc(Cl)cc2)cc1)(C(=O)OC)c1ccccc1 (stereo not drawn)	68 to 72
CN1CCN(c2ccc(F)cc2C=C2CCCN(c3ccc(Cl)c(Cl)c3)C2=O)CC1	161 to 162
COc1cc2c(cc1-c1nocc1-c1ccccc1C#N)C(C)(C)CCC2(C)C	202 to 203
CCC(=O)N1N=C(c2ccc([N+](=O)[O-])c(C)c2)c2cc3c(cc2CC1(C)C#N)OCO3 (stereo not drawn)	191 to 193
CC#CCOc1ccc(S(=O)(=O)N(C)C(C(=O)NO)C(C)(C)SCCN(CC)CC)cc1 (stereo not drawn)	55 to 57
Nc1ncnn1C(=S)NCCCCCO	108 to 109
O=C(NCCCCSc1ccncc1)c1ccccc1	75 to 77
COc1cc2cc(COC(C)=O)c(COC(C)=O)c(C=O)c2cc1OC	154 to 155
CCC(CC)c1ccc(C#N)c2nc(Nc3c(C)cc(Cl)cc3OC)n(C)c12	223 to 225
Cc1cc(-n2cncn2)ncc1[N+](=O)[O-]	198 to 200
Cc1[nH]c(-c2ccccc2)nc1CO	197 to 199
